Measured values from patent US12617752B2, “Rapidly metabolized lipid compound” (Beijing Jitai Life Sciences Ltd, priority 2023, dated 2026).

Tests used:
C57BL/6 mice = assay: In vivo delivery of luciferase mRNA lipid nanoparticles in mice (bioluminescence imaging); settings: intravenous, single dose 0.5 mg/kg luciferase mRNA
Protocol: The delivery effect and safety of nanoparticles encapsulated with luciferase mRNA (Trilink, L-7202) in mice were evaluated. The test mice were SPF-grade C57BL/6 mice, female, 6-8 weeks old, weighing 18-22 g, and were purchased from SPF (Beijing) Biotechnology Co., Ltd. All animals were acclimatized for more than 7 days prior to the experiment, and had free access to food and water during the experiment. The conditions include alternating light and dark for 12/12 h, the indoor temperature of 20-26° C. and the humidity of 40-70%. The mice were randomly grouped. The lipid nanoparticles encapsulated with luciferase mRNA prepared above were injected into mice by intravenous administration at a single dose of 0.5 mg/kg mRNA, and the mice were subjected to in vivo bioluminescence assay using a Small Animal In Vivo Imaging System (IVIS LUMINA III, purchased from PerkinElmer) at 6 h after administration. The assay was performed as follows: D-luciferin solution was prepared in saline at a concentration of 15 mg/mL, and each mouse was given the substrate by intraperitoneal injection. At ten minutes after administration of the substrate, the mice were anesthetized in an anesthesia chamber with isoflurane at a concentration of 2.5%. The anesthetized mice were placed in IVIS for fluorescence imaging, and data acquisition and analysis were performed on the concentrated distribution area of fluorescence.
The in vivo delivery efficiency of lipid nanoparticle carriers was expressed as the mean values of fluorescence intensity and total photon count in different animals within the same subject group, as shown in Table 5-Table 11. Higher values of fluorescence intensity and total photon count indicate higher in vivo delivery efficiency of this mRNA fragment by lipid nanoparticles. The lipid nanoparticles containing the cationic lipids of the present disclosure have good in vivo delivery efficiency.

[1] = Particle size and PDI of lipid nanoparticles by dynamic light scattering; type: physicochemical; settings: lipid nanoparticles with luciferase mRNA; ionizable lipid/cholesterol/DSPC/DMG-PEG2000 50/38.5/10/1.5 mol%
Protocol: (§1) Lipid nanoparticles were prepared by (1) dissolving and mixing ionizable lipid compounds, cholesterol, phospholipids and polyethylene glycolated lipids in ethanol at (molar percentages) 50%, 38.5%, 10% and 1.5%, respectively; (2) dissolving the mRNA active ingredient in 25 mM sodium acetate solution (pH=4.5); (3) using an automated high-throughput microfluidic system to mix the organic phase containing the lipid mixture and the aqueous phase containing the mRNA component in the flow ratio range of 1:1 to 1:4 at a mixing speed of 10 mL/min to 18 mL/min; (4) the prepared lipid nanoparticles (N/P ratio=6) were diluted with phosphate buffer solution and the nanoparticle solutions were ultrafiltered to the original preparation volume using ultrafiltration tubes (purchased from Millipore) with a cut-off molecular weight of 30 kDa; and (5) the obtained nanoparticles were filtered through a sterile 0.2 μm filter membrane and then stored in a sealed glass vial at low temperature.
(§2) The particle size and particle size dispersity index (PDI) of the prepared lipid nanoparticles were measured using a Zetasizer Pro (purchased from Malvern Instruments Ltd) and a DynaPro NanoStar (purchased from Wyatt) dynamic light scattering instrument. The degree of RNA encapsulation by lipid nanoparticles was characterized by the Encapsulation Efficiency %, which reflects the degree of binding of lipid nanoparticles to RNA fragments. This parameter was measured by the method of Quant-it™ RiboGreen RNA Assay (purchased from Invitrogen). Lipid nanoparticle samples were diluted in TE buffer (10 mM Tris-HCl, 1 mM EDTA, pH=7.5). A portion of the sample solution was removed, to which 0.5% Triton (Triton X-100) was added, and then allowed to stand at 37° C. for 30 minutes. Immediately after the addition of RIBOGREEN® reaction solution, the fluorescence values were read on a Varioskan LUX multifunctional microplate reader (purchased from Thermofisher) at 485 nm for absorption and 528 nm for emission to give the encapsulation efficiency values.

[2] = Encapsulation efficiency of lipid nanoparticles (Quant-it RiboGreen RNA Assay); type: physicochemical; settings: lipid nanoparticles with luciferase mRNA
Protocol: as §1, §2

Structure (SMILES)	Total photon count in vivo at 6 hours after administration (Total Flux) (C57BL/6 mice)	Particle size (nm) [1] [nm]	Particle-size distribution (PDI) [1]	Encapsulation efficiency (%) [2] [%]
CCCCCCCCCC(=O)OCC(C)(C)CCCCCN(CCCO)CCCCCCCC(=O)OC(CCCCCCCC)CCCCCCCC [2b]	8.31E+10	104.61	0.013	80.17
CCCCCCCCCCCOC(=O)CCCCCN(CCO)CCCCCCC(C)(C)C(=O)OC(CCCCCCCC)CCCCCCCC [3a]	1.03E+11	89.72	0.021	94.23
CCCCCCCCCOC(=O)CCCCCCCN(CCO)CCCCCCC1(C(=O)OC(CCCCCCCC)CCCCCCCC)CC1 [6a]	2.88E+10	90.67	0.018	87.22
CCCCCCCCCC(=O)OCCCCCCCN(CCO)CCCCCCC(C)(C)C(=O)OC(CCCCCCCC)CCCCCCCC [6b]	7.42E+10	99.55	0.029	80.01
CCCCCCCCCOC(=O)CCCCCCCN(CCO)CCCCCCC(C)(C)C(=O)OCCC(CCCCCC)CCCCCC [7a]	5.26E+10			
CCCCCCCCC(CCCCCCCC)OC(=O)C(C)(C)CCCCCCN(CCO)CCCCCCCOC(=O)CCCC(CCCCC)CCCCC [7b]	2.00E+10	101.67	0.030	88.68
CCCCCCCCCOC(=O)CCCCCCCN(CCO)CCCCCC(C)(C)CC(=O)OC(CCCCCCCC)CCCCCCCC [9a]	2.06E+10	103.03	0.031	89.64
CCCCCCCCCOC(=O)CCCCCCCN(CCO)CCCC(C)(C)CCC(=O)OC(CCCCCCCC)CCCCCCCC [10a]	7.08E+10	131.09	0.032	89.69
CCCCCCCCCCCOC(=O)CCCCCN(CCCO)CCCCCCC(C)(C)C(=O)OC(CCCCCCCC)CCCCCCCC [11a]	2.05E+10	98.01	0.021	89.36
CCCCCCCCCCCOC(=O)CCCCCN(CCCCO)CCCCCCC(C)(C)C(=O)OC(CCCCCCCC)CCCCCCCC [12a]	1.39E+10	104.85	0.021	85.24
CCCCCCCCCCCOC(=O)CCCCCN(CCO)CCCCCCC1(C(=O)OC(CCCCCCCC)CCCCCCCC)CC1 [13a]	5.01E+10	110.20	0.018	92.96
CCCCCCCCCCCOC(=O)CCCCCN(CCO)CCCCCCC(C)(C)C(=O)OCC(CCCCCCC)CCCCCCC [14a]	1.09E+11	90.99	0.012	91.67
CCCCCCCCCC(=O)OCC1(CCCCCN(CCO)CCCCCCCC(=O)OC(CCCCCCCC)CCCCCCCC)CC1 [14b]	1.05E+11	99.73	0.013	83.54
CCCCCCCCCCCOC(=O)CCCCCN(CCO)CCCCCCC(C)(C)C(=O)OCCC(CCCCCC)CCCCCC [15a]	4.15E+10	95.94	0.021	90.77
